Converted amounts (≈) assume the structure as drawn.
How the values were obtained:
Format in all cases: functional
Pseudomonas aeruginosa = experiment: The compound was tested for its antibacterial activity against Pseudomonas aeruginosa (20 strains)
Streptococcus pyogenes = experiment: The compound was tested for its antibacterial activity against Streptococcus pyogenes (10 strains)
Escherichia coli = experiment: The compound was tested for its antibacterial activity against Escherichia coli (21 strains)
Staphylococcus aureus [1] = experiment: The compound was tested for its antibacterial activity against Staphylococcus aureus (12 strains)
Bacteroides fragilis = experiment: The compound was tested for its antibacterial activity against Bacteroides fragilis (12 strains)
Staphylococcus aureus [2] = experiment: The compound was tested for its antibacterial activity against Staphylococcus aureus, ciprofloxacin resistant (14 strains)
Streptococcus pneumoniae = experiment: The compound was tested for its antibacterial activity against Streptococcus pneumoniae (10 strains), expressed as MIC90
Enterococcus faecalis = experiment: The compound was tested for its antibacterial activity against Enterococcus faecalis (10 strains)
Haemophilus influenzae = experiment: The compound was tested for its antibacterial activity against Haemophilus influenzae (10 strains)

## CS(=O)(=O)O.C[C@H]1CN(c2c(F)cc3c(=O)c(C(=O)O)cn(C45CC(C4)C5)c3c2F)C[C@H]1CN
Pseudomonas aeruginosa
  MIC90: 8 µg/mL
Streptococcus pyogenes
  MIC90: 0.125 µg/mL
Escherichia coli
  MIC90: 0.125 µg/mL
Staphylococcus aureus [1]
  MIC90: 0.125 µg/mL
Bacteroides fragilis
  MIC90: 1 µg/mL
Staphylococcus aureus [2]
  MIC90: 0.5 µg/mL
Streptococcus pneumoniae
  MIC90: 0.125 µg/mL
Enterococcus faecalis
  MIC90: 0.25 µg/mL
Haemophilus influenzae
  MIC90: 0.06 µg/mL

## O=C(O)c1cn(C2CC2)c2cc(N3CCNCC3)c(F)cc2c1=O [CIPROFLOXACIN]
Pseudomonas aeruginosa
  MIC90: 2 µg/mL (≈ 6.04 µM)
Streptococcus pyogenes
  MIC90: 0.5 µg/mL (≈ 1.51 µM)
Escherichia coli
  MIC90: 0.03 µg/mL (≈ 0.0905 µM)
Staphylococcus aureus [1]
  MIC90: 1 µg/mL (≈ 3.02 µM)
Bacteroides fragilis
  MIC90: 8 µg/mL (≈ 24.1 µM)
Staphylococcus aureus [2]
  MIC90: > 16 µg/mL
Streptococcus pneumoniae
  MIC90: 1 µg/mL (≈ 3.02 µM)
Enterococcus faecalis
  MIC90: 2 µg/mL (≈ 6.04 µM)
Haemophilus influenzae
  MIC90: 0.015 µg/mL (≈ 0.0453 µM)
